Reference: patent US20240350647A1, “STING SENSITIZING AGENTS” (STipe Therapeutics ApS, priority 2023, published 2024)
“Also recorded” adds a separate entry of the source. Where a SMILES comes first, the peptide text is derived from it. Bridges are numbered along the chain shown (N, C = ends). [ ]: non-standard residue; d: D form. The star is where a group is joined. C16 diacid = O=C(O)CCCCCCCCCCCCCCC(=O)*; AEEA = NCCOCCOCC(=O)O

Columns and labels:
[1] = In vitro metabolic stability in fresh blood; format: in vitro ADME; settings: 37° C.; mouse, rat and human blood
Procedure: Fresh blood from mouse (CD-1) and rat (Wistar) was collected from lab animals. Human blood was collected from healthy donors at local hospital or acquired from commercial vendor (BioIVT). Blood from non-human primates (Cynomolgus macaque) was acquired from commercial vendor (BioTVT).
For mouse, rat and human blood, 5.0 μg/mL of tested agent (except Agent 1 in human blood) was diluted from stock solution in DMSO to a final DMSO concentration of 0.5% and incubated in 1000 μL of blood at 37° C., in duplicate. At 0, 5, 15, 30, and 60 minutes, 180 μL was sampled and centrifuged at 2000 g for 1 min, 80 μL supernatant was taken and diluted 1:1 with water followed by precipitation with acetonitrile containing 5% TFA (internal standard 100 nM leucine enkephalin+Glu1 fibrinopeptide B). The obtained supernatant 60 μL was further diluted with 30 μL 20% DMSO in ultra-pure water and submitted for immediate analysis by LC-MS/MS. The controls were 1 μM propantheline bromide (mouse, human) or 1 μM enalapril (rat).
Incubation of Agent 1 in blood from human and monkey was performed in a similar manner. A 25 μM solution of Agent 1 was prepared with 5% DMSO and 22.5% methanol in water. […]
The peak areas were determined against a calibration curve and the T0 sample was set to 100%. The disappearance rate (k) was calculated and the half-life for each incubation was determined (t½=ln 2/k).

[2] = Pharmacokinetics after intravenous bolus, mouse; format: in vivo; settings: 10 mg/kg bolus IV
Procedure: Test agents were formulated in 2% (v/v) propylene glycol in 25 mM HEPES, pH 7.4 and administered with a bolus injection at 10.0 mg/kg via the tail vain to male CD-1 mice (Charles River Laboratories) or male Wistar rats (Charles River Laboratories), or with a 30-min intravenous infusion at 4 mg/kg to male cynomolgus monkeys.
Blood samples were collected at 2.5, 5, 10, 30, 60, 120, 240 and 480 minutes after administration (mouse and rat), or at 5, 15, 30, 60, 120, 240, 360, 480 and 1440 min (Agent 1) or at 5, 15, 30, 45, 60, 90, 150, 240 and 480 min (Agent 2) after the start of infusion in monkeys. Samples were immediately mixed with a protease inhibitor cocktail (Roche cOmplete™ EDTA-free) before being cooled and centrifuged for plasma separation. Plasma samples were frozen and stored at −20° C. until analysis.
To rat samples, blank rat plasma was added up to a volume of 100 μl. […]
Mouse and rat samples: Separation was done with a C18 column (Phenomenex Kinetex XB—C18 (100×2.1 mm, 1.7 μm)), using a gradient between 1% formic acid in water and 2% DMSO in acetonitrile (Agent 1) or acetonitrile (Agent 2). […] The range of quantitation was 4-20,000 ng/mL.
Non-compartmental PK analysis on plasma concentration versus time data was analyzed by non-compartmental approaches using the WinNonlin software program (version 6.3 or above, Pharsight, Mountain View, CA). […]

FIG. 10A = settings: mouse, in vivo, iv, 10 mg/kg
Procedure: Table printed on a drawing sheet, FIG. 10A
The patent's description of the figure: FIGS. 10A-10C. Pharmacokinetic profile and parameter for peptides after intravenous administration. FIG. 10A) Mouse PK data (10 mg/kg, bolus IV, n=3 per timepoint). FIG. 10B) Rat PK data (10 mg/kg, bolus IV, n=3 per timepoint). FIG. 10C) Non-human primate (NHP) PK data (4 mg/kg, 30 min IV infusion, n=3). Error bars represent the standard deviation (SD).
First reader's note: Mouse PK parameters; the legend of the plot on the same sheet gives 10 mg/kg (IV) for both agents.

With `CC[C@H](C)[C@H](NC(=O)[C@H](CC(N)=O)NC(=O)[C@H](CCCCN)NC(=O)[C@H](C)NC(=O)[C@H](CCCCN)NC(=O)[C@H](CCCCN)NC(=O)COCCOCCNC(=O)COCCOCCNC(=O)CCCCCCCCCCCCCCC(=O)O)C(=O)N[C@H](C(=O)N[C@@H](CC(C)C)C(=O)N[C@@H](CC(C)C)C(=O)N[C@@H](CCCCN)C(=O)NCC(=O)N[C@@H](CC(C)C)C(=O)N[C@@H](CCC(=O)O)C(=O)N[C@H](C(=O)N[C@H](C(=O)N[C@@H](CC(N)=O)C(=O)N[C@@H](CC(=O)O)C(=O)N[C@@H](Cc1c[nH]c2ccccc12)C(=O)N[C@@H](Cc1c[nH]cn1)C(=O)N[C@@H](Cc1ccccc1)C(=O)N[C@H]1CSSC[C@@H](C(N)=O)NC(=O)[C@@H](CCCNC(=N)N)NC(=O)[C@H](CCCNC(=N)N)NC(=O)[C@@H](CCCCN)NC(=O)[C@H](CCCCN)NC(=O)[C@@H](CCCNC(=N)N)NC(=O)CNC(=O)[C@@H](CCCNC(=N)N)NC(=O)[C@H](CCCNC(=N)N)NC(=O)[C@@H](CCCNC(=N)N)NC1=O)[C@@H](C)CC)C(C)C)C(C)C` [Agent 1] ({C16 diacid-AEEA-AEEA}-KKAKNIVLLKGLEVINDWHFC[dR]R[dR]G[dR]K[dK]R[dR]C-NH2; disulfide 21-31) the “metabolic stability in fresh blood (half-life) compared to Agent 2 and Agent 3” value [1] was “better stability; also recorded: considerably reduces the metabolism”, the “increase in exposure (AUC0-inf) compared to Agent 2, at equal dose” value [2] was “approximately 32 fold” and the C0 (FIG. 10A) was 30500 ng/mL.
